This note sets out measurements from ChEMBL document CHEMBL1926603 (Bioorg Med Chem Lett, 2011).

One assay has as its target T1, Tyrosinase (Agaricus bisporus, UniProt O42713).
T1 sequence (O42713 whole entry): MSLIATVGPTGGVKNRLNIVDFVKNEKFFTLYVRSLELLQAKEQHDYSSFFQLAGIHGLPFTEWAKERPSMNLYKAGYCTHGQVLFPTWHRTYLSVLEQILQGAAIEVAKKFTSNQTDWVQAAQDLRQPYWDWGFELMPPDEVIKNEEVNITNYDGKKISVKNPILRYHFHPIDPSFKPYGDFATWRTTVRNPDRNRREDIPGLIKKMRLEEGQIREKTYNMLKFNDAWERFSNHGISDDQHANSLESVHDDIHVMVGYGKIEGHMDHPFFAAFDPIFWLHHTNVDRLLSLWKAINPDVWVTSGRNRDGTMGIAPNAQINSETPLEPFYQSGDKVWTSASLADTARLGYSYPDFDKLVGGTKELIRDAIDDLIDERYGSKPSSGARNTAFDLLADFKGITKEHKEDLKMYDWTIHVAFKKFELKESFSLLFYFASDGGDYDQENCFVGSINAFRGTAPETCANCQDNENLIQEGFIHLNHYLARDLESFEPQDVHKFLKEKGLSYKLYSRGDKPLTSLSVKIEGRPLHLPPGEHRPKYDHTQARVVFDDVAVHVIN
Nature of the assay: Inhibition of mushroom tyrosinase activity using L-tyrosin as substrate after 20 mins.

Assay [1] is described as follows: Ratio of kojic acid IC50 to compound IC50 for depigmentation activity in mouse Melan-a cells assessed as inhibition of melanin formation after 4 days. The assay is classed as functional.
Assay [2] has as its system Radical scavenging activity.
Description: Antioxidant activity assessed as DPPH radical scavenging activity after 30 mins
Assay [3] can be described thus: cells. As to conditions: Mus musculus, Melan-a, 96 h.
Description: Depigmentation activity in mouse Melan-a cells assessed as inhibition of melanin formation after 4 days
Assay [4] in a line: cells. The following applies: Mus musculus, Melan-a.
Description: Cytotoxicity against mouse Melan-a cells by modified crystal voilet assay

Molecules are shown by their SMILES.

The term IC50 denotes the concentration that inhibits the measured activity by half. Read a high IC50 as lower potency. Regarding `Cc1c(C)c2c(c(C)c1O)CCC(C)(C(=O)OCc1cc(=O)c(O)co1)O2` (racemic), the IC50 on Tyrosinase was found to be 5.36 µM; in assay [2] it was 11.6 µM; in the assay “cells [3]”, 17.7 µM; in “cells [4]”, 56.5 µM. Besides, the “Ratio IC50” value in assay [1] is 90.
As to `O=C(OCc1cc(=O)c(O)co1)c1ccc2cc(O)ccc2c1`, the IC50 is 9.65 µM on Tyrosinase, more than 200 µM in assay [2], more than 200 µM in the assay “cells [3]” and more than 200 µM in the assay “cells [4]”.
Consider `O=C(OCc1cc(=O)c(O)co1)c1ccc(O)cc1`, for which the IC50 at Tyrosinase was 5.51 µM; in assay [2], more than 200 µM; in “cells [3]” it was more than 200 µM; in the assay “cells [4]”, more than 200 µM.
On to `Cc1c(C)c2c(c(C)c1O)CCC(C)(C(=O)O)O2` (stereo unspecified) [TROLOX], for which the IC50 against Tyrosinase was more than 200 µM; in assay [2] it was 10.1 µM; in “cells [3]” it was more than 300 µM; in the assay “cells [4]” it was 300 µM.
Take `COc1coc(COC(=O)C2(C)CCc3c(C)c(O)c(C)c(C)c3O2)cc1=O` (stereo unspecified): the IC50 is more than 200 µM at Tyrosinase, 19.8 µM in assay [2], more than 200 µM in “cells [3]” and more than 200 µM in the assay “cells [4]”.
